Measured values taken from patent publication US20240254109A1, “SALT CONTAINING PIPERAZINE POLYCYCLIC DERIVATIVE, CRYSTAL FORM THEREOF, PREPARATION METHOD THEREFOR, AND USE THEREOF” (Shanghai Hansoh Biomedical Co., Ltd., priority 2021, published 2024).
Where a name gives a salt, the structure may show the parent alone.

Columns and labels:
[1] = Solid stability experiment of crystal form of salt; assay type: physicochemical
Procedure: 4. Solid Stability Experiment
The physicochemical stability of crystal form of salt of compound N-(trans-3-(2-(4-(2,3-dichlorophenyl)piperazin-1-yl)ethyl)cyclobutyl)oxazole-2-carboxamide under the conditions of light 50001×, high temperature 60° C., high humidity 92.5% RH and high temperature and high humidity 50° C. 75% RH was investigated, which provided a basis for crystal form screening and compound crystal form storage.
About 1 mg of different crystal forms of salt were taken and placed under the conditions of light 50001×, high temperature 60° C., high humidity 92.5% RH, high temperature and high humidity 50° C. 75% RH for 5 days and 10 days. The salt content was determined by HPLC and external standard method, and the change of relevant substances was calculated by chromatographic peak area normalization method.

[2] = Pressure crystal transformation test; assay type: physicochemical; details: before and after pressure, tablet press at maximum pressure
From the text: 4.5 Pressure Crystal Transformation Test
The tablet press was adjusted to the maximum pressure. It was pressed into a tablet and then was subjected to PXRD characterization.

[3] = Grinding crystal transformation test; assay type: physicochemical; details: before and after grinding in a mortar for 5 min
From the text: 4.6 Grinding Crystal Transformation Test

[4] = Hygroscopicity experiment of crystal form A of hydrochloride; assay type: physicochemical
From the text: 5 Hygroscopicity Experiment

[5] = Thermodynamic stability experiment of crystal form (pulping in solvents); assay type: physicochemical; details: for Results (crystal form after pulping, XRPD): pulped 1 week at room temperature and 50° C.
Procedure: 6. Thermodynamic Stability Experiment of Crystal Form
An organic solvent with a certain solubility was selected. […] The supernatant was discarded, and the solid was dried in vacuum (−0.1 Mpa) overnight at 50° C. The XRPD of the solid was determined and compared with XRPD of raw compound salt.

[6] = Salt form quantification by HPLC-ELSD; assay type: physicochemical
Procedure: 7. Salt Form Quantification
The number of acids binding in the salt form was quantified by HPLC-ELSD test.
An appropriate amount of NaCl was weighed, and a series of linear solutions of different concentrations with the diluent acetonitrile-water (50:50) was prepared.
The above linear solution and hydrochloride samples solution was taken to filter.
7.3 Experimental results: The content of hydrochloric acid in hydrochloride was calculated according to the external standard method, and the quantitative results of hydrochloride are shown in Table 30.

[7] = Pharmacokinetics study in rats; assay type: in vivo
From the text: 8. Pharmacokinetics Study in Rats

[8] = Crystal form stability study of hydrochloride for 30 days; assay type: physicochemical; details: 30 days
Procedure: 9. Crystal Form Stability Study of Hydrochloride for 30 Days
The 30 days stability of hydrochloride of N-(trans-3-(2-(4-(2,3-dichlorophenyl)piperazin-1-yl)ethyl)cyclobutyl)oxazole-2-carboxamide under four conditions of 60° C. (closed), 40° C. & RH 75% (open), 25° C./RH 92.5% (open) and light (5000±500 Lux) was detected, which provided scientific basis for the production, packaging, storage and transportation conditions of drugs.
The diluent 80% methanol solution was added to prepare a solution containing about 0.5 mg/mL hydrochloride. The mixture was sonicated for 30 min to produce a clear solution. 1 mL of the solution was filtered and measured by HPLC. See “2.3.4” for the HPLC analysis method. The content of related substances was calculated according to the peak area normalization method, and the results are shown in Table 32 below.

[9] = High humidity, 5 Days, listed as Crystal form A of hydrochloride
[10] = High temperature and high humidity, 5 Days
[11] = High temperature and high humidity, 10 Days
[12] = Light, 5 Days, listed as Crystal form A of hydrochloride
[13] = Light, 10 Days, listed as Crystal form A of hydrochloride
[14] = light, 60° C., 92.5% RH, 50° C. 75% RH, 5 and 10 days
[15] = light, 60° C., 92.5% RH, 40° C. & 75% RH

In the case of `O=C(N[C@H]1C[C@H](CCN2CCN(c3cccc(Cl)c3Cl)CC2)C1)c1ncco1` [crystal form A of hydrochloride, N-(trans-3-(2-(4-(2,3-dichlorophenyl)piperazin-1-yl)ethyl)cyclobutyl)oxazole-2-carboxamide], the “Maximum single impurity increase %” value [1, 9] is reported as 0.06%, the “Total impurity increase %” value [1, 9] is reported as 0.06% and the “Maximum single impurity increase %” value ([1]; High humidity, 10 Days) is reported as <0.02%. The “Total impurity increase %” value ([1]; High humidity, 10 Days) was <0.02%, the “Maximum single impurity increase %” value [1, 10] was <0.02% and the “Total impurity increase %” value [1, 10] was <0.02%. The “Maximum single impurity increase %” value [1, 11] was <0.02%, the “Total impurity increase %” value [1, 11] was <0.02% and the “Maximum single impurity increase %” value ([1]; High temperature, 5 Days) was <0.02%. The “Total impurity increase %” value ([1]; High temperature, 5 Days) was <0.02%, the “Maximum single impurity increase %” value ([1]; High temperature, 10 Days) was <0.02% and the “Total impurity increase %” value ([1]; High temperature, 10 Days, listed as Crystal form A of hydrochloride) was 0.03%. The “Maximum single impurity increase %” value [1, 12] was <0.02%, the “Total impurity increase %” value [1, 12] was <0.02% and the “Maximum single impurity increase %” value [1, 13] was <0.02%. The “Total impurity increase %” value [1, 13] was <0.02%, the crystal form stability [1, 14] was “stable under all conditions” and the impurities [1, 14] was “not significantly increased”. The “crystal transformation (PXRD)” value [2] was “didn't undergo crystal transformation”, the “crystal transformation (PXRD)” value [3] was “didn't undergo crystal transformation” and the “stability in humid environments” value [4] was “stable in humid environments”. For the same compound, the “thermodynamic stability of crystal form” value [5] was “thermodynamically stable crystal form”, the “Results (crystal form after pulping, XRPD)” value (“Results” below) ([5]; 1,4-Dioxane) was “Crystal form A” and the “crystal form after being pulped by different solvents” value ([5]; 1 week, room temperature and 50° C.) was “does not change”. The “Results” value ([5]; 2-Butanone) was “Crystal form A”, the “Results” value ([5]; 2-Methyl-tetrahydrofuran) was “Crystal form A” and the “Results” value ([5]; Acetone) was “Crystal form A”. For the same compound, the “Results” value ([5]; Acetonitrile) was “Crystal form A”, the “Results” value ([5]; Dichloromethane) was “Crystal form A” and the “Results” value ([5]; Ethanol) was “Crystal form A”. The “Results” value ([5]; Ethyl acetate) was “Crystal form A”, the “Results” value ([5]; Ethyl formate) was “Crystal form A” and the “Results” value ([5]; Isopropanol) was “Crystal form A”. The “Results” value ([5]; Methanol) was “Crystal form A”, the “Results” value ([5]; Methyl tert-butyl ether) was “Crystal form A” and the “Results” value ([5]; Tetrahydrofuran) was “Crystal form A”. For the same compound, the “Results” value ([5]; Toluene) was “Crystal form A”, the “Results” value ([5]; n-Heptane) was “Crystal form A” and the “Determination of Cl-percentage content in hydrochloride” value ([6]; Batch 1) was 7.82%. For the same compound, the “Determination of Cl-percentage content in hydrochloride” value ([6]; Batch 2) was 7.90%, the exposure versus dose ([7]; dose of 100 mg/kg and 30 mg/kg) was “dose-related” and the “in vivo exposure compared with crystal form B of free base” value ([7]; gavage) was “increased”. The stability [8] was “good stability”, the “crystal form change (PXRD)” value [8, 15] was “does not undergo crystal form change” and the “impurities (HPLC)” value [8, 15] was “do not increase significantly”.
